# Experimental data published in patent publication US20230263822A1, “MODULATION OF FACTOR 11 EXPRESSION” (Ionis Pharmaceuticals, Inc., priority 2008, published 2023).
# Strand notation (5' to 3'): a small letter for the sugar, then the base; units joined by * are phosphorothioate-linked, units joined directly phosphodiester-linked; [ ] holds rarer units or linkages, { } end groups; capitals alone tell only the bases. e = 2'-O-(2-methoxyethyl) (MOE); [5mC] = 5-methylcytosine; d = 2'-deoxy (DNA)
# What was measured:
# [1] = Tolerability in CD1 mice: body weight and organ weight (Example 43); type: in vivo; details: 50 mg/kg s.c. twice per week for 6 weeks, at the end of the study
# Text: The body weights of the mice taken at the end of the study are presented in Table 104 and are expressed in grams.
# [2] = Tolerability in Sprague-Dawley rats: hematology assays (Example 44); type: in vivo; details: 50 mg/kg s.c. twice per week for 6 weeks, blood
Substance,body weight [1],Platelets [2],RBC [2],WBC [2],hematocrit [2],hemoglobin [2],lymphocytes [2],monocytes [2],neutrophils [2]
"ISIS 449710: 3-8-3, 4-8-4, 2-10-2, 3-10-3 or 4-10-4 MOE microwalk gapmer (Table 46) (antisense e[5mC]*eA*e[5mC]*dA*dG*dT*dT*dT*d[5mC]*dT*dG*dG*d[5mC]*eA*eG*eG)",42 g,509 nL⁻¹,6.3 pL⁻¹,13 nL⁻¹,41%,12.5 g/dL,91%,2%,6%
"ISIS 449709: 3-8-3, 4-8-4, 2-10-2, 3-10-3 or 4-10-4 MOE microwalk gapmer (Table 46) (antisense eG*e[5mC]*eA*e[5mC]*dA*dG*dT*dT*dT*d[5mC]*dT*dG*dG*d[5mC]*eA*eG*eG*e[5mC])",40 g,631 nL⁻¹,6.9 pL⁻¹,14 nL⁻¹,41%,12.6 g/dL,91%,3%,5%
"ISIS 449711: 3-8-3, 4-8-4, 2-10-2, 3-10-3 or 4-10-4 MOE microwalk gapmer (Table 46) (antisense eA*e[5mC]*dA*dG*dT*dT*dT*d[5mC]*dT*dG*dG*d[5mC]*eA*eG)",42 g,919 nL⁻¹,6.4 pL⁻¹,13 nL⁻¹,43%,12.6 g/dL,90%,2%,7%
"ISIS 449707: 3-8-3, 4-8-4, 2-10-2, 3-10-3 or 4-10-4 MOE microwalk gapmer (Table 46) (antisense e[5mC]*eA*e[5mC]*eA*dG*dT*dT*dT*d[5mC]*dT*dG*dG*e[5mC]*eA*eG*eG)",42 g,722 nL⁻¹,6.0 pL⁻¹,20 nL⁻¹,40%,12.0 g/dL,91%,2%,6%
